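96-well plates; 48 h exposure; 5 concentrations. Endpoints by linear interpolation between flanking doses. Not reached: highest tested concentration assigned. GI50 is the concentration that inhibits growth by half.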 Calls of active or inactive are those of the source. Rule as the data show it: active = GI50 up to about 1.1 µM and inactive = higher.

Ten compounds from ChEMBL document CHEMBL1201862, “PubChem BioAssay data set” (2004) can be followed below.

Holding throughout (test): NCI anticancer screen, dose series, 48 h
Assay [1] concerns MDA-MB-231.
Assay [2] concerns NCI-H226.
Assay [3] deals with LOX IMVI.
The subject of assay [4] is SK-MEL-2.
The test system of assay [5] is DU-145.
Assay [6] relates to SK-MEL-28.
Assay [7] has as its system UACC-257.
For assay [8], the system named is CCRF-CEM.
Assay [9] relates to HOP-92.
Assay [10] has as its system A498.
Assay [11] has as its system UO-31.
Assay [12] concerns Hs-578T.
Assay [13] has as its system HCT-116.
Assay [14] relates to SK-MEL-5.
For assay [15], the system named is SW-620.
The test system of assay [16] is SF-268.
Assay [17] concerns HT-29.
In assay [18] the test system is HL-60.
The subject of assay [19] is COLO 205.
The subject of assay [20] is HCC 2998.

Turning to `O=[N+]([O-])c1cc(Cc2cc([N+](=O)[O-])c3cccnc3c2O)c(O)c2ncccc12`, the GI50 in [1] was 3.4 µM (inactive); in [2], 16.6 µM (inactive); in assay [3], 3.91 µM (inactive); in assay [4] it was 11.1 µM (inactive); in assay [5], 9.89 µM (inactive); in [6], 13.6 µM (inactive). Further, the GI50 was 2.65 µM (inactive) in assay [7]; 1.77 µM (inactive) in assay [8]; 5.96 µM (inactive) in assay [9]; 14.2 µM (inactive) in [10]; 4 µM (inactive) in assay [11]; 9.51 µM (inactive) in assay [12]. For the same compound, the GI50 in [13] is 3.35 µM (inactive); in assay [14], 6.79 µM (inactive); in [15], 5.94 µM (inactive); in assay [16] it was 3.52 µM (inactive); in assay [17], 10.2 µM (inactive); in assay [18], 1.61 µM (inactive). The GI50 in assay [19] is 19.7 µM (inactive).

With `O=C(Nc1ccc([As](=O)(O)O)cc1)Nc1cccc(Cl)c1Cl`, the GI50 in [20] was > 100 µM (inactive); in assay [1] it was 23.3 µM (inactive); in assay [2], > 100 µM (inactive); in [3] it was > 100 µM (inactive); in [4], > 100 µM (inactive); in assay [5] it was > 100 µM (inactive). Besides, the GI50 in assay [6] was > 100 µM (inactive); in assay [7] it was > 100 µM (inactive); in [9], 77.8 µM (inactive); in assay [10] it was > 100 µM (inactive); in [11] it was 40.6 µM (inactive); in assay [12], 20.5 µM (inactive). Besides, the GI50 is > 100 µM (inactive) in assay [13]; > 100 µM (inactive) in assay [14]; > 100 µM (inactive) in [15]; 45.7 µM (inactive) in assay [16]; > 100 µM (inactive) in assay [17]; > 100 µM (inactive) in assay [18]. The GI50 in assay [19] is > 100 µM (inactive).

As to `CCOP(=O)(COCCn1ncc(=O)[nH]c1=O)OCC`, the GI50 in assay [20], in [1], in assay [2], in [3], in assay [4] and in [5] was > 100 µM (inactive) in each case. Further, the GI50 in assay [6], in [8], in assay [9], in assay [10], in assay [11] and in [12] was > 100 µM (inactive) throughout. Moreover, the GI50 in assay [14], in [15], in assay [16], in assay [17], in assay [18] and in assay [19] was > 100 µM (inactive) throughout.

As to `CO[P@@]1(=O)O[C@@H](c2ccccc2)[C@H](O)[C@@]1(O)c1ccccc1`, the GI50 in [1], in [2], in assay [3], in assay [4], in [5] and in [6] was > 100 µM (inactive) each time. Also, the GI50 in assay [7] is > 100 µM (inactive); in assay [8], > 100 µM (inactive); in assay [9], > 100 µM (inactive); in assay [10], > 100 µM (inactive); in assay [11] it was > 100 µM (inactive); in assay [12], 91.8 µM (inactive). For the same compound, the GI50 in [13] is > 100 µM (inactive); in assay [14] it was > 100 µM (inactive); in [15] it was > 100 µM (inactive); in assay [16] it was > 100 µM (inactive); in assay [17], 45.6 µM (inactive); in assay [18] it was > 100 µM (inactive). The GI50 in assay [19] was > 100 µM (inactive).

With `O=c1oc2ccccc2cc1-c1nnc(-c2ccccc2)s1`, the GI50 is 12 µM (inactive) in assay [20]; 19.1 µM (inactive) in [1]; > 56 µM (inactive) in assay [2]; > 72.8 µM (inactive) in [3]; > 48.8 µM (inactive) in [4]; > 100 µM (inactive) in assay [5]. The GI50 in assay [6] is 98.6 µM (inactive); in [7], > 100 µM (inactive); in assay [8], 40.3 µM (inactive); in [9] it was > 100 µM (inactive); in assay [10], 15.1 µM (inactive); in assay [11] it was 55.6 µM (inactive). For the same compound, the GI50 in [12] was > 64.4 µM (inactive); in assay [13] it was 20.3 µM (inactive); in assay [14], > 71.3 µM (inactive); in [15], 12.1 µM (inactive); in assay [16], > 57.9 µM (inactive); in [17], 10.1 µM (inactive). Moreover, the figures for the GI50 in assay [18] and in assay [19] were 0.0279 µM (active) and > 53 µM (inactive), respectively.

Consider `Nc1c(/C=C/c2cc3cc(C4=NCCN4)ccc3o2)[nH]c2cc(C3=NCCN3)ccc12`, for which the GI50 in [20] is 32.4 µM (inactive); in assay [1], 34.1 µM (inactive); in [2] it was > 100 µM (inactive); in [3], 38.8 µM (inactive); in [4], > 100 µM (inactive); in assay [5] it was 36.1 µM (inactive). For the same compound, the GI50 in [6] is 32 µM (inactive); in assay [7], 46.7 µM (inactive); in assay [9], 99.8 µM (inactive); in assay [10], > 100 µM (inactive); in [11], 40.6 µM (inactive); in [12], > 100 µM (inactive). Also, the GI50 is 29.4 µM (inactive) in assay [13]; 30.8 µM (inactive) in [14]; 34.4 µM (inactive) in assay [15]; 46.7 µM (inactive) in [16]; 34.3 µM (inactive) in [17]; 29.6 µM (inactive) in [18]. In [19], the GI50 is 41.3 µM (inactive).

Regarding `c1cc(-c2ncc(-c3ccc4c(c3)CCCO4)o2)ccn1`, the GI50 is 17.7 µM (inactive) in assay [1]; 21 µM (inactive) in assay [2]; 8.41 µM (inactive) in [3]; 10.8 µM (inactive) in assay [4]; 12 µM (inactive) in [5]; 11.6 µM (inactive) in assay [6]. For the same compound, the GI50 in assay [7] was 13.2 µM (inactive); in [8], 4.83 µM (inactive); in assay [9] it was 21.6 µM (inactive); in assay [10], 10.6 µM (inactive); in [11], 23.2 µM (inactive); in assay [12], 17.4 µM (inactive). The GI50 in assay [13] is 10.7 µM (inactive); in assay [14], 9.2 µM (inactive); in [16] it was 19.3 µM (inactive); in [17], 7.4 µM (inactive); in [18], 2.42 µM (inactive); in [19], 5.42 µM (inactive).

Take `COc1c2c(cc3c1C1(O)Cc4ccc5c(c4C[N+]1(C)CC3)OCO5)OCO2` (centres undefined): the GI50 in [20] is 33 µM (inactive); in assay [1], > 100 µM (inactive); in [2] it was > 100 µM (inactive); in [3], 62.1 µM (inactive); in [4] it was > 100 µM (inactive); in assay [5] it was > 100 µM (inactive). Moreover, the GI50 in assay [6] is > 100 µM (inactive); in [7] it was > 100 µM (inactive); in [8], 82.8 µM (inactive); in assay [9], > 100 µM (inactive); in [10] it was > 100 µM (inactive); in [12], > 100 µM (inactive). In addition, the GI50 in [13] was 35.1 µM (inactive); in [14], > 100 µM (inactive); in assay [15], > 100 µM (inactive); in assay [16] it was > 100 µM (inactive); in [17] it was 33.9 µM (inactive); in assay [18] it was 42.7 µM (inactive). The GI50 in assay [19] is 58.5 µM (inactive).

For `N#Cc1cc2c(n(C3OC(CO)C(O)C(O)C3O)c1=S)CCC2` (centres undefined), the GI50 in [20], in assay [1], in assay [2], in assay [3], in assay [4] and in assay [5] was > 100 µM (inactive) throughout. The GI50 in [6], in assay [7], in assay [8], in [9], in assay [10] and in assay [11] was > 100 µM (inactive) each time. In addition, the GI50 in [12], in [13], in assay [14], in [16], in [17] and in assay [18] was > 100 µM (inactive) throughout. In addition, the GI50 in [19] was > 100 µM (inactive).

`O=C(OC1C#CCSCC#C/C=C\1)c1cnc2ccccc2n1` (centres undefined): the GI50 in assay [20] was > 100 µM (inactive); in assay [1] it was > 100 µM (inactive); in [2], 79.4 µM (inactive); in assay [3] it was > 100 µM (inactive); in [4] it was > 100 µM (inactive); in [5] it was > 100 µM (inactive). In addition, the GI50 in [6] is > 100 µM (inactive); in [7] it was > 100 µM (inactive); in assay [8], 53.6 µM (inactive); in assay [9] it was > 100 µM (inactive); in assay [10] it was 40 µM (inactive); in assay [11], > 100 µM (inactive). For the same compound, the GI50 in assay [12] is 29.8 µM (inactive); in assay [13], > 100 µM (inactive); in [15], > 100 µM (inactive); in assay [16], > 100 µM (inactive); in [17], > 100 µM (inactive); in assay [18] it was 30.6 µM (inactive). Besides, the GI50 in assay [19] is 14.6 µM (inactive).
